Tests used:
[1] = system: human multiple myeloma RPMI-8226 cells; assay: NK cell cytotoxicity (ADCC) against daratumumab pre-coated RPMI-8226 cells (Example 9); type: cell-based; details: NK cells primed with 1000 ng/mL overnight; targets pre-coated with daratumumab 100 ng/mL; E:T 10:1, 3 hr
Procedure: Human NK cells were magnetically sorted from normal donor PBMCs using negative selection. NK cells were seeded in a 96-well U-bottom plate at a density of 400,000 cells/well. NK cells were stimulated with 1000 ng/mL of a long-acting IL-15 receptor agonist (mono(mPEG-butanamide)IL-15) (+) or left unstimulated (−) in complete RPMI-1640 media supplemented with 10% fetal bovine serum (FBS) and 1% antibiotic/antimycotic overnight at 37° C. in 5% CO2.
The human multiple myeloma RPMI-8226 cells (ATCC #CCL-155) were washed in PBS and stained with 0.15 μM CFSE for 5 min at 37° C. The tumor cells were pre-coated with 100 ng/mL daratumumab (+) for 1 hr at 37° C. where indicated. The stimulated NK cells (effector cells) and the pre-coated CFSE-labeled tumor cells (target cells) were co-cultured in an E:T ratio of 10:1 for 3 hr at 37° C. in 5% CO2. Following incubation, cells were washed in flow staining buffer, Fc-blocked for 15 min at 4° C., and surface-stained (CD45, CD56, CD3-fluorescently conjugated antibodies). The cells were washed in PBS and incubated in 7-aminoactinomycin (7-AAD) viability stain for 30 minutes at 4° C. before acquiring for flow cytometric analysis using a Fortessa (BD). The percentage of 7-AAD+CFSE+ target cells from total cell population is the percentage for dead tumor cells.

CD56+ human NK cells [2] = assay: Human NK cell proliferation in CFSE labeled PBMCs (Example 5); type: cell-based; details: 5 days; Conjugate 1 100 ng/ml; plate coated with hIgG 0.1 mg/ml
Procedure: NK cell proliferation within a human peripheral blood mononuclear cell (PBMCs) labeled with CFSE preparation was induced in vitro. The CFSE labeled PBMCs were incubated for 5 days in vitro in the presence of (i) mono(methoxyPEG-N-butanamide)40 kD interleukin-15 (Conjugate 1) at a concentration of 100 ng/ml; (ii) on cell culture plastic that had been prior coated overnight with human total immunoglobulin G (hIgG) solution at a concentration of 0.1 mg/ml (iii) on cell culture plastic that had been prior coated overnight with human total immunoglobulin G (hIgG) solution at a concentration of 0.1 mg/ml and in the presence of Conjugate 1 at a concentration of 100 ng/ml; or (iv) on regular cell culture plastic. After the incubation period, cell proliferation as indicated by the decrease of CFSE in the cells that had undergone cell doublings was measured with flow cytometry (FIGS. 8A-8D) measuring CFSE levels in CD56+ human NK cells within the PBMCs preparation in each of the four incubation conditions.

NK cells = assay: Granzyme B expression per cell in bone marrow NK cells of Daudi lymphoma bearing mice (Example 11); type: in vivo; details: bone marrow day 24; Conjugate 1 0.3 mg/kg; antibody 0.5 mg/kg
Procedure: Balb/c mice bearing Daudi B cell lymphoma tumors in the bone marrow (n=6/group) were intraperitoneally administered a single 0.5 mg/kg dose of the human CD38 protein targeting clinical antibody daratumumab (DARZALEX®), Janssen Biotech) or a nonspecific control antibody with a matching isotype on day 14 after Daudi cell intravenous inoculation. Additional groups were treated with (i) mono(mPEG-N-butanamide)40 kD interleukin-15 (Conjugate 1) administered subcutaneously at a dose of 0.3 mg/kg as a single agent on days 14 and 21 after Daudi cell inoculation, or (ii) a combination treatment of Conjugate 1 administered subcutaneously at doses of 0.03 mg/kg or 0.3 mg/kg on days 14 and 21 after Daudi cell inoculation and daratumumab administered intraperitoneally at a dose of 0.5 mg/kg on day 14 after Daudi cell inoculation.
Three days following the second Conjugate 1 administration (day 24 after Daudi inoculation), bone marrow was collected and the NK cell fraction was measured by flow cytometry in total bone marrow.

NCI-N87 cells = assay: Tumor growth inhibition in NCI-N87 gastric carcinoma model (Example 22); type: in vivo, mice; details: 25 days after treatment initiation; trastuzumab 3/1/1 mg/kg IV; Compound 1 0.3 mg/kg IV x3
Procedure: Tumor growth inhibition in inoculated mice was measured 25 days after treatment initiation. Results are provided graphically in FIG. 25.

SKOV-3 cells = assay: Tumor growth inhibition in SKOV-3 ovarian carcinoma model (Example 21); type: in vivo, mice; details: 35 days after treatment initiation; trastuzumab 13.5 mg/kg IV x6; Compound 1 0.3 mg/kg IV x3
Procedure: Tumor growth inhibition in inoculated mice was measured 35 days after treatment initiation.

CD56+ human NK cells [3] = assay: Dose response of human NK cell proliferation in CFSE labeled PBMCs (Example 8); type: cell-based; details: 5 days
Procedure: Human peripheral blood mononuclear cell (PBMCs) labeled with a CFSE preparation were incubated for 5 days in vitro in the presence of increasing doses of rhIL-15 (dose range 1 ng/ml-100 ng/ml, 5 point, 3 fold dilutions) or a long-acting IL-15 receptor agonist (mono(mPEG-butanamide)IL-15) (dose range 10 ng/ml-1000 ng/ml, 5 point, 3 fold dilutions). After the incubation period, cell proliferation as indicated by the decrease of CFSE in the cells that had undergone cell doublings was measured with flow cytometry measuring CFSE levels in CD56+ human NK cells within the PBMCs preparation.

mono(methoxyPEG-N-butanamide)40 kD interleukin-15 [Conjugate 1]
ADCC, % 7-AAD+ target cells [1]: enhanced ADCC of daratumumab pre-coated multiple myeloma cells | % CD56+ NK cells proliferating (CD56+ human NK cells [2]): 49.7% | Granzyme B mean fluorescence intensity (MFI mean value) (NK cells): 2649 | Relative Granzyme B expression compared to untreated condition (NK cells): 6.7x increase | tumor growth inhibition (NCI-N87 cells): no tumor growth inhibition | tumor growth inhibition (SKOV-3 cells): no tumor growth inhibition | EC50 (ng/ml)-% proliferation (CD56+ human NK cells [3]): 39.04 ng/mL | Emax-% proliferation (CD56+ human NK cells [3]): 71.6% | potency in inducing human NK cell proliferation, fold less than rhIL-15 (CD56+ human NK cells [3]): approximately 17 fold

Reference: patent US20210393742A1, “LONG-ACTING INTERLEUKIN-15 RECEPTOR AGONIST IN COMBINATION WITH ANOTHER PHARMACOLOGICALLY ACTIVE AGENT” (Nektar Therapeutics, priority 2018, published 2021)
